From patent US6599893B2, “Cephalosporin antibiotics and prodrugs thereof” (Essential Therapeutics, Inc., priority 2000, dated 2003)
In brackets after ≈: the same amount, converted by molar mass.

Key:
[1] = test system: Staphylococcus aureus COL (MRSA, non-β-lactamase producing); test: Broth microdilution MIC, S. aureus COL; type: cell-based; details: Staphylococcus aureus COL (MRSA, non-β-lactamase producing); for MIC: read-out: MIC S. a. COL
Experimental: (§1) Compounds were evaluated for antimicrobial activity against a panel of bacterial strains using a broth microdilution assay performed as recommended by the NCCLS (NCCLS (National Committee for Clinical Laboratory Standards). 1993. Methods for dilution antimicrobial susceptibility tests for bacteria that grow aerobically. NCCLS Document M7-A3, 1993. In: NCCLS Antimicrobial Susceptibility Testing, 3rd Ed.)
(§2) The minimum inhibitory concentration (MIC) is defined as the lowest concentration of a compound that prevents the growth of the bacteria.

[2] = test system: Staphylococcus aureus ATCC 29213 (MSSA); test: Broth microdilution MIC, S. aureus ATCC 29213; type: cell-based; details: Staphylococcus aureus ATCC 29213 (MSSA); for MIC: read-out: MIC S. a. 29213
Experimental: as §1, §2

[3] = test system: Staphylococcus aureus 76 (MRSA, β-lactamase producing); test: Broth microdilution MIC, S. aureus 76; type: cell-based; details: Staphylococcus aureus 76 (MRSA, β-lactamase producing); for MIC: read-out: MIC S. a. 76
Experimental: as §1, §2

[4] = test system: Enterococcus faecium ATCC 35667; test: Broth microdilution MIC, E. faecium ATCC 35667; type: cell-based; details: Enterococcus faecium ATCC 35667; for MIC: ATCC35667, read-out: MIC E. f. 35667
Experimental: as §1, §2

[5] = test system: Enterococcus faecalis ATCC 29212; test: Broth microdilution MIC, E. faecalis ATCC 29212; type: cell-based; details: Enterococcus faecalis ATCC 29212; for MIC: ATCC29212, read-out: MIC E. f. 29212
Experimental: as §1, §2

[6] = test system: Staphylococcus aureus Smith (MSSA); test: Broth microdilution MIC, S. aureus Smith; type: cell-based; details: Staphylococcus aureus Smith (MSSA); for MIC: read-out: MIC S. a. Smith
Experimental: as §1, §2

[7] = Human serum binding by ultrafiltration; type: in vitro ADME
Experimental: Binding of several representative compounds of this invention in pooled human serum was determined using ultrafiltration. Compounds were incubated in serum for 10 minutes at 37° C. in a shaking water bath. Serum ultrafiltrate was accomplished by centrifugation (Amicon Centrifree) for 20 minutes at 25° C. Compound content in the ultrafiltrate was quantified by HPLC. An ultrafilrate obtained by following the same procedure with no added compound was used as a standard.

Row | Structure (SMILES) | MIC S. a. COL [1] [µg/mL] | MIC S. a. 29213 [2] [µg/mL] | MIC S. a. 76 [3] [µg/mL] | MIC E. f. 35667 [4] [µg/mL] | MIC E. f. 29212 [5] [µg/mL] | MIC [1] [µg/mL] | MIC [2] [µg/mL] | MIC [3] [µg/mL] | MIC [4] [µg/mL] | MIC [5] [µg/mL] | MIC [6] [µg/mL] | MIC S. a. Smith [6] [µg/mL] | HSB, human serum binding [7] [%]
1 | CON=C(C(=O)NC1C(=O)N2C(C(=O)O)=C(Sc3ccccc3Br)CSC12)c1csc(N)n1 (stereo not shown) [Compound 5] | 16 (≈ 28 µM) | 0.5 (≈ 0.876 µM) | 16 (≈ 28 µM) | 32 (≈ 56.1 µM) | >32 | – | – | – | – | – | – | – | –
2 | CON=C(C(=O)NC1C(=O)N2C(C(=O)O)=C(Sc3ccc(Br)cc3)CSC12)c1csc(N)n1 (stereo not shown) [Compound 6] | – | <0.015 | 32 (≈ 56.1 µM) | 16 (≈ 28 µM) | 16 (≈ 28 µM) | – | – | – | – | – | – | – | –
3 | Nc1nc(C(=NO)C(=O)NC2C(=O)N3C(C(=O)O)=C(Sc4ccccc4I)CSC23)cs1 (stereo not shown) [Compound 7] | 2 (≈ 3.31 µM) | <0.25 | 4 (≈ 6.63 µM) | 2 (≈ 3.31 µM) | – | – | – | – | – | – | – | – | –
4 | CON=C(C(=O)NC1C(=O)N2C(C(=O)O)=C(Sc3ccccc3I)CSC12)c1csc(N)n1 (stereo not shown) [Compound 8] | 32 (≈ 51.8 µM) | 1 (≈ 1.62 µM) | 32 (≈ 51.8 µM) | 32 (≈ 51.8 µM) | – | – | – | – | – | – | – | – | –
5 | Nc1nc(/C(=N/OC2CCCC2)C(=O)N[C@@H]2C(=O)N3C(C(=O)O)=C(Sc4ccccc4I)CS[C@H]23)cs1 [Compound 9] | 1 (≈ 1.49 µM) | <0.25 | 2 (≈ 2.98 µM) | 2 (≈ 2.98 µM) | 2 (≈ 2.98 µM) | – | – | – | – | – | – | – | –
6 | Nc1nc(C(=NO)C(=O)NC2C(=O)N3C(C(=O)O)=C(Sc4ccccc4-c4ccccc4)CSC23)cs1 (stereo not shown) [Compound 10] | 4 (≈ 7.22 µM) | 0.5 (≈ 0.903 µM) | 8 (≈ 14.4 µM) | 2 (≈ 3.61 µM) | 2 (≈ 3.61 µM) | – | – | – | – | – | – | – | –
7 | N#Cc1ccccc1SC1=C(C(=O)O)N2C(=O)[C@@H](NC(=O)/C(=N\OC3CCCC3)c3csc(N)n3)[C@H]2SC1 [Compound 12] | 4 (≈ 7.01 µM) | 1 (≈ 1.75 µM) | 8 (≈ 14 µM) | 8 (≈ 14 µM) | 8 (≈ 14 µM) | – | – | – | – | – | – | – | –
8 | Nc1nc(/C(=N/OCCF)C(=O)N[C@@H]2C(=O)N3C(C(=O)O)=C(Sc4ccnn4-c4ccccc4)CS[C@H]23)cs1 [Compound 14] | – | – | – | – | – | 8 (≈ 13.6 µM) | 1 (≈ 1.7 µM) | 16 (≈ 27.1 µM) | 16 (≈ 27.1 µM) | 32 (≈ 54.3 µM) | – | – | –
9 | Nc1nc(/C(=N/O)C(=O)N[C@@H]2C(=O)N3C(C(=O)O)=C(Sc4ccnn4-c4ccccc4)CS[C@H]23)cs1 [Compound 15] | – | – | – | – | – | 16 (≈ 29.4 µM) | 1 (≈ 1.84 µM) | 32 (≈ 58.9 µM) | 8 (≈ 14.7 µM) | 2 (≈ 3.68 µM) | – | – | –
10 | Nc1nc(/C(=N/OCCF)C(=O)N[C@@H]2C(=O)N3C(C(=O)O)=C(Sc4ccnn4-c4ccccc4)CS[C@H]23)c(Cl)s1 [Compound 16] | – | – | – | – | – | 2 (≈ 3.2 µM) | 0.5 (≈ 0.801 µM) | 4 (≈ 6.41 µM) | 4 (≈ 6.41 µM) | 1 (≈ 1.6 µM) | 0.5 (≈ 0.801 µM) | – | –
11 | CC(C)(C)O/N=C(\C(=O)N[C@@H]1C(=O)N2C(C(=O)O)=C(Sc3ccnn3-c3ccccc3)CS[C@H]12)c1csc(N)n1 [Compound 18] | – | – | – | – | – | 8 (≈ 13.3 µM) | 1 (≈ 1.67 µM) | 16 (≈ 26.7 µM) | 16 (≈ 26.7 µM) | 2 (≈ 3.33 µM) | 1 (≈ 1.67 µM) | – | –
12 | C=CCO/N=C(\C(=O)N[C@@H]1C(=O)N2C(C(=O)O)=C(Sc3ccnn3-c3ccccc3)CS[C@H]12)c1csc(N)n1 [Compound 20] | – | – | – | – | – | 8 (≈ 13.7 µM) | 1 (≈ 1.71 µM) | 16 (≈ 27.4 µM) | 32 (≈ 54.8 µM) | 32 (≈ 54.8 µM) | 0.5 (≈ 0.857 µM) | – | –
13 | NC(=O)NCCSCc1cnccc1SC1=C(C(=O)O)N2C(=O)[C@@H](NC(=O)/C(=N\O)c3nc(N)sc3Cl)[C@H]2SC1 [Compound 30] | 4 (≈ 6.2 µM) | 0.5 (≈ 0.775 µM) | 4 (≈ 6.2 µM) | – | 0.125 (≈ 0.194 µM) | – | – | – | – | – | – | 0.5 (≈ 0.775 µM) | 96
14 | Cn1ccnc1SC1=C(C(=O)O)N2C(=O)[C@@H](NC(=O)/C(=N\O)c3nc(N)sc3Cl)[C@H]2SC1 [Compound 31] | 16 (≈ 31 µM) | 0.5 (≈ 0.969 µM) | 32 (≈ 62 µM) | 16 (≈ 31 µM) | 1 (≈ 1.94 µM) | – | – | – | – | – | – | 0.125 (≈ 0.242 µM) | –
15 | Cc1nnc(SC2=C(C(=O)O)N3C(=O)[C@@H](NC(=O)/C(=N\O)c4nc(N)sc4Cl)[C@H]3SC2)s1 [Compound 33] | 4 (≈ 7.49 µM) | 1 (≈ 1.87 µM) | 8 (≈ 15 µM) | 4 (≈ 7.49 µM) | 1 (≈ 1.87 µM) | – | – | – | – | – | – | 0.5 (≈ 0.936 µM) | –
16 | CSc1nnc(SC2=C(C(=O)O)N3C(=O)[C@@H](NC(=O)C(=NO)c4nc(N)sc4Cl)C3SC2)s1 (stereo partly drawn) [Compound 44, (7R)-7-[2-(2-Amino-5-chlorothiazol-4-yl)-2-hydroxyiminoacetylamino]-3-(5-methylsulfanyl-[1,3,4]thiadiazol-2-ylsulfanyl)-8-oxo-5-thia-1-aza-bicyclo[4.2.0]oct-2-ene-2-carboxylic acid] | – | – | – | – | – | 1 (≈ 1.77 µM) | 0.25 (≈ 0.442 µM) | 1 (≈ 1.77 µM) | 1 (≈ 1.77 µM) | 0.25 (≈ 0.442 µM) | – | – | –
17 | Cc1noc(SC2=C(C(=O)O)N3C(=O)[C@@H](NC(=O)C(=NO)c4nc(N)sc4Cl)C3SC2)n1 (stereo partly drawn) [Compound 45, (7R)-7-[2-(2-Amino-5-chlorothiazol-4-yl)-2-hydroxyiminoacetylamino]-3-(3-methyl-[1,2,4]oxadiazol-5-ylsulfanyl)-8-oxo-5-thia-1-aza-bicyclo[4.2.0]oct-2-ene-2-carboxylic acid] | – | – | – | – | – | 4 (≈ 7.72 µM) | 0.5 (≈ 0.965 µM) | 4 (≈ 7.72 µM) | 0.5 (≈ 0.965 µM) | 0.125 (≈ 0.241 µM) | 1 (≈ 1.93 µM) | – | –
18 | Nc1nsc(SC2=C(C(=O)O)N3C(=O)[C@@H](NC(=O)C(=NO)c4nc(N)sc4Cl)C3SC2)n1 (stereo partly drawn) [Compound 47, (7R)-7-[2-(2-Amino-5-chlorothiazol-4-yl)-2-hydroxyiminoacetylamino]-3-(3-amino-[1,2,4]thiadiazol-5-ylsulfanyl)-8-oxo-5-thia-1-aza-bicyclo[4.2.0]oct-2-ene-2-carboxylic acid] | – | – | – | – | – | 0.5 (≈ 0.935 µM) | 0.125 (≈ 0.234 µM) | 1 (≈ 1.87 µM) | 0.5 (≈ 0.935 µM) | 0.125 (≈ 0.234 µM) | 0.25 (≈ 0.467 µM) | – | –
19 | Nc1nc(C(=NO)C(=O)N[C@@H]2C(=O)N3C(C(=O)O)=C(Sc4nnco4)CSC23)c(Cl)s1 (stereo partly drawn) [Compound 48, (7R)-7-[2-(2-Amino-5-chlorothiazol-4-yl)-2-hydroxyiminoacetylamino]-3-([1,3,4]oxadiazol-2-ylsulfanyl)-8-oxo-5-thia-1-aza-bicyclo[4.2.0]oct-2-ene-2-carboxylic acid] | – | – | – | – | – | 2 (≈ 3.97 µM) | 0.25 (≈ 0.496 µM) | 2 (≈ 3.97 µM) | 1 (≈ 1.98 µM) | 0.25 (≈ 0.496 µM) | – | – | –
20 | Nc1nc(C(=NO)C(=O)N[C@@H]2C(=O)N3C(C(=O)O)=C(Sc4nnc(N)s4)CSC23)cs1 (stereo partly drawn) [Compound 49, 3-(5-Amino-[1,3,4]thiadiazol-2-ylsulfanyl)-(7R)-7-[2-(2-aminothiazol-4-yl)-2-hydroxyiminoacetylamino]-8-oxo-5-thia-1-aza-bicyclo[4.2.0]oct-2-ene-2-carboxylic acid] | – | – | – | – | – | 4 (≈ 7.99 µM) | 0.25 (≈ 0.499 µM) | 8 (≈ 16 µM) | 1 (≈ 2 µM) | 0.5 (≈ 0.999 µM) | – | – | –
21 | Nc1nc(C(=NO)C(=O)N[C@@H]2C(=O)N3C(C(=O)O)=C(Sc4nncs4)CSC23)ns1 (stereo partly drawn) [Compound 50, (7R)-7-[2-(5-Amino-[1,2,4]thiadiazol-3-yl)-2-hydroxyiminoacetylamino]-8-oxo-3-([1,3,4]thiadiazol-2-ylsulfanyl)-5-thia-1-aza-bicyclo [4.2.0]oct-2-ene-2-carboxylic acid] | – | – | – | – | – | 4 (≈ 8.22 µM) | 0.25 (≈ 0.514 µM) | 8 (≈ 16.4 µM) | 2 (≈ 4.11 µM) | 1 (≈ 2.06 µM) | – | – | –
22 | Nc1nc(CC(=O)N[C@@H]2C(=O)N3C(C(=O)O)=C(Sc4nnc(N)s4)CSC23)cs1 (stereo partly drawn) [Compound 51, 3-(5-Amino-[1,3,4]thiadiazol-2-ylsulfanyl)-(7R)-7-[2-(2-amino-thiazol-4-yl)-acetylamino]-8-oxo-5-thia-1-aza-bicyclo[4.2.0]oct-2-ene-2-carboxylic acid] | – | – | – | – | – | 4 (≈ 8.48 µM) | 0.125 (≈ 0.265 µM) | 16 (≈ 33.9 µM) | 4 (≈ 8.48 µM) | 2 (≈ 4.24 µM) | 0.06 (≈ 0.127 µM) | – | –
23 | Nc1nc(C(=NO)C(=O)N[C@@H]2C(=O)N3C(C(=O)O)=C(Sc4nc(Cl)ns4)CSC23)c(Cl)s1 (stereo partly drawn) [Compound 52, (7R)-7-[2-(2-Amino-5-chlorothiazol-4-yl)-2-hydroxyiminoacetylamino]-3-(3-chloro-[1,2,4]thiadiazol-5-ylsulfanyl)-8-oxo-5-thia-1-aza-bicyclo[4.2.0]oct-2-ene-2-carboxylic acid] | – | – | – | – | – | 1 (≈ 1.8 µM) | 0.25 (≈ 0.451 µM) | 2 (≈ 3.61 µM) | 1 (≈ 1.8 µM) | 0.25 (≈ 0.451 µM) | – | – | –
